pIC50: −log10 of the molar value. “Also recorded” adds a separate entry of the source.
Experiments:
neointima formation = settings: animal models; cited from earlier work
CDK4/Cyclin D1 = CDK4/Cyclin D1 (Homo sapiens (Human), UniProt P11802); assay: CDK4 filtration kinase assay; type: biochemical; settings: CDK4/Cyclin D1, Rb fragment substrate, [33P]-ATP filtration assay
Procedure: The CDK4 and CDK1 inhibitory activity of the CDK4/6-FLT3 inhibitors was determined with a filtration kinase assay. The compounds, kinase and substrate diluted in the kinase buffer (20 mM Tris, pH7.4, 50 mM NaCl, 1 mM DTT, 0.1% BSA) were sequentially added to a 96-well Multiscreen HTS filtration plate (Millipore). The final 100 μL reaction mixture in each well contained 0.3 μg of CDK4/Cyclin D1 or CDK1/Cyclin B (Cell Signaling Technology), 1 μg of Rb fragment (aa773-928, Millipore) for the CDK4 assay or 5 μg of histone H1 for the CDK1 assay and 1 μCi of [^33P]-ATP. The mixture was incubated at room temperature for 1 hour. The proteins in the reaction were then precipitated and washed with cold TCA solution using an aspiration/filtration vacuum system. The plates were dried at room temperature, and the retained radioactivity was measured by scintillation counting.
(§1) IC50 values of the compounds in the above assays were determined by non-linear regression analysis using Prism (GraphPad Software).

[1] = molecular target: FLT3 enzyme (GST-FLT3 fusion) (Homo sapiens (Human), UniProt P36888); assay: FLT3 HTRF kinase assay; type: biochemical; settings: 116 μM ATP
FLT3 enzyme (GST-FLT3 fusion), sequence (P36888 27-993): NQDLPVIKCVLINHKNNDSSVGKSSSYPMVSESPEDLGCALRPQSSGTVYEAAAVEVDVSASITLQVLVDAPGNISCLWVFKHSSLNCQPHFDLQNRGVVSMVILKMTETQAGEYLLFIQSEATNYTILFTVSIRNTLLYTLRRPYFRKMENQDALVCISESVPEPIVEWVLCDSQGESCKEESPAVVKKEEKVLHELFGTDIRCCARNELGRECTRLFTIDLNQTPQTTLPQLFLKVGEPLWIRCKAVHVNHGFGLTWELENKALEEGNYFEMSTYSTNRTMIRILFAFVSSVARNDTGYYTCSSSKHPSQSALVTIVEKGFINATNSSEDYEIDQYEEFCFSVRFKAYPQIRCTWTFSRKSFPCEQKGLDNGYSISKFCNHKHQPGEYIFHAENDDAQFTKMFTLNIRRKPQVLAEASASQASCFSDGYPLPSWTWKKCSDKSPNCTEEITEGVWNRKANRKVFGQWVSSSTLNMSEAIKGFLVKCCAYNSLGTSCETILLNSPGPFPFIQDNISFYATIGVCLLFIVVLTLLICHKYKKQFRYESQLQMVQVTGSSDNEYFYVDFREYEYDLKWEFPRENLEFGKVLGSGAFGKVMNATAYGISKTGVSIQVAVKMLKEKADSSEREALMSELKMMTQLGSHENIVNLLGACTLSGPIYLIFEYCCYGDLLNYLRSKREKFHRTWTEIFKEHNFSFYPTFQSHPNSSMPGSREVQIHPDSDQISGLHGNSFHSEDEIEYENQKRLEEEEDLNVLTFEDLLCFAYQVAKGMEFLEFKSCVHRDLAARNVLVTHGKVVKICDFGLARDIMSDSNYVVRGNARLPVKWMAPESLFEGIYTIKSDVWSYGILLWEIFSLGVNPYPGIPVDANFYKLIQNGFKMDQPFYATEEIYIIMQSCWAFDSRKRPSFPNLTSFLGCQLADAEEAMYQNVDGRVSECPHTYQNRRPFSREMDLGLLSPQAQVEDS
Procedure: The FLT3 inhibitory activity of the CDK4/6-FLT3 inhibitors was determined with a HTRF kinase assay. The FLT3 enzyme (GST-FLT3 fusion) was purchased from Carna Biosciences. An ULight-labeled synthetic peptide derived from human Janus kinase 1 (aa1015-1027, ULight-JAK1, PerkinElmer) was utilized as the phosphoacceptor substrate. The assay was conducted in a 384-well white OptiPlate (PerkinElmer). The 20 μL reaction mixture contained 50 nM ULight-JAK1, 116 μM ATP, 0.0385 ng/μL FLT3 and dilutions of test compounds in the kinase buffer (50 mM Hepes, pH 7.6, 1 mM EGTA, 10 mM MgCl2, 2 mM DTT, and 0.005% Tween 20). The reaction was allowed to proceed for 1 hour at room temperature and was stopped by adding 20 μL of 10 mM EDTA, 2 nM LANCE® Eu-W1024 anti-phospho-tyrosine antibody in LANCE® detection buffer (PerkinElmer). The plates were incubated at room temperature for 2 hours after addition of detection reagents and then read on an Envision multimode reader (PerkinElmer).
as §1

MOLM13 cells = assay: [14C]-thymidine incorporation cell proliferation assay, MOLM13; type: cell-based, human; settings: Homo sapiens, MOLM-13, 72 hour incubation
Procedure: The cell proliferation inhibition potency of the CDK4/6-FLT3 inhibitors was determined by using a [^14C]-thymidine incorporation assay. Exponentially growing cells (MOLM-13, Colo-205, etc.) were seeded in a 96-well Cytostar T plate (GE Healthcare Biosciences) at a density of 5×10^3 cells/well and incubated overnight. Serially diluted compounds and 0.1 μCi of [^14C]-thymidine (GE Healthcare Biosciences) were added to each well on the following day. After 72 hour incubation, isotope incorporation was determined with a β plate counter (Wallac). MOLM13 is a human AML tumor cell line expressing FLT3, FLT3^ITD and wild type Rb.
as §1

[2] = test system: MOLM13 subcutaneous xenograft tumors; assay: Tumor growth inhibition in AML MOLM13 xenograft tumors; type: in vivo, CrTac:NCR-Foxn1nu nude mice
Procedure: The AML cell line, MOLM13, (obtained from American Type Culture Collection, Manassas, Va., USA) was cultured in RPMI-1640 cell growth medium containing 10% fetal bovine serum (commercially obtained from Invitrogen, Carlsbad, Calif. USA). This cell line expresses CDK4/6, one copy of wild type FLT3 kinase and one copy of FLT3-ITD, which results in constitutive activation of FLT3 activity. Therefore, the activity of Example 5 against both FLT3 and CDK4/6 can be tested in this tumor cell. Tumor cells (7.5 million) were injected subcutaneously onto the right flank of CrTac:NCR-Foxn1^nu nude mice (commercially available from Taconic Farms, Inc, Hudson, N.Y. USA). Tumors were allowed to grow for 6 days. […] Tumors were measured every other day using two-dimensional calipers and tumor volumes were estimated using the equation Width^2×Length×0.5. […] Statistical significance was evaluated using RMANOVA on log transformed tumor volume with baseline as covariate.

[3] = test system: Colo205 human colon carcinoma xenograft tumors; assay: Tumor growth inhibition in Colo205 xenograft tumors; type: in vivo, CrTac:NCR-Foxn1nu nude mice
Procedure: The activity of Example 5 was evaluated in the human colon carcinoma, Colo205, xenograft tumor model. This cell line expresses CDK4/6 but not FLT3. Therefore, this system will measure the activity of Example 5 against CDK4/6. Colo205 cells (obtained from American Type Culture Collection, Manassas, Va., USA) were cultured in DMEM cell growth medium containing 10% fetal bovine serum (commercially obtained from Invitrogen, Carlsbad, Calif. USA). Two million cells were innoculated on the right flank of CrTac:NCR-Foxn1^nu nude mice (commercially available from Taconic Farms, Inc, Hudson, N.Y. USA) and allowed to grow for 13 days. Mice were then distributed into groups of 10 mice based on ranking of initial tumor volume to achieve groups in which the average tumor size was 170 mm^3 Example 5 was formulated in 2% HPMC (Hypermellose; HY122-13; commercially available from Spectrum Chemical Manufacturing Gardena, Calif. USA)/1% Tween-80 (Crillet 4 HP; commercially available from Croda, Inc Edison, N.J. USA) and dosed daily or twice daily 6 hours apart for a total of 10 days with 12.5 mg/kg, 25 mg/kg, 37.5 mg/kg, or 50 mg/kg. Tumors were measured every other day using two-dimensional calipers and tumor volumes were estimated using the equation Width^2×Length×0.5. […] Statistical significance was evaluated using RMANOVA on log transformed tumor volume with baseline as covariate.

CDK4/Cyclin D1, sequence (P11802 whole entry, the tested form may be a part): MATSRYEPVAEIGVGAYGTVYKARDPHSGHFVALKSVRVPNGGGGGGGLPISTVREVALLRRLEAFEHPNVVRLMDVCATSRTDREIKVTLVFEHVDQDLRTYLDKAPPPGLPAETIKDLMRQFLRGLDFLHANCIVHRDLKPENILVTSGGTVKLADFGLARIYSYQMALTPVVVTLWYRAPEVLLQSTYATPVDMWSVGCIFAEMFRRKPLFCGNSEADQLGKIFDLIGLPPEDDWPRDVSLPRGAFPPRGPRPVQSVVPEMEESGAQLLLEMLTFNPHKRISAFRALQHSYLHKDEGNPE
CDK4/Cyclin D1, sequence (P24385 whole entry partner, the tested form may be a part): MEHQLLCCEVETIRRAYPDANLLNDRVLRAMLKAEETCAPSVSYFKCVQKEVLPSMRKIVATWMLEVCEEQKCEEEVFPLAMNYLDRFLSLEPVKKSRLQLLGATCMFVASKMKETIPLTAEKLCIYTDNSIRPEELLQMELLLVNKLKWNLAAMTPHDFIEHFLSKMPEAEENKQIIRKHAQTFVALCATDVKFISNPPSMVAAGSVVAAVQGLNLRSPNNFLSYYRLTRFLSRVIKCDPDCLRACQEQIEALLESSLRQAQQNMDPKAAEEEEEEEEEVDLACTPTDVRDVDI

Compound	inhibition of neointima formation (neointima formation)	pIC50 (CDK4/Cyclin D1)	pIC50 [1]	pIC50 (MOLM13 cells)	inhibition of tumor growth (tumor volume) ([2]; 6.25-150 mg/kg, twice daily (BID), 10 days)	tumor volume versus vehicle treated group (RMANOVA) ([2]; all doses)	inhibition of tumor growth (tumor volume) ([3]; 12.5-50 mg/kg, twice daily (BID), 10 days)	tumor volume versus vehicle treated group (RMANOVA) ([3]; all doses)
COc1ccc(CNc2nc(N(CCO)CCO)nc3c2ncn3C(C)C)cc1 [CVT-313]	significant inhibition of neointima formation							
C[C@H]1CC[C@H](n2c3cnccc3c3cnc(Nc4ccc5c(n4)CCN(CCF)C5)nc32)CC1 [Example 9, N-(6-(2-Fluoroethyl)-5,6,7,8-tetrahydro-1,6-naphthyridin-2-yl)-9-((1r,4r)-4-methylcyclohexyl)-9H-pyrido[4′,3′:4,5]pyrrolo[2,3-d]pyrimidin-2-amine]		7.14	8.47	7.19				
C[C@H]1CC[C@H](n2c3cnccc3c3cnc(Nc4ccc5c(n4)CCN(CCCO)C5)nc32)CC1 [Example 4, 3-(2-((9-((1r,4r)-4-Methylcyclohexyl)-9H-pyrido[4′,3′:4,5]pyrrolo[2,3-d]pyrimidin-2-yl)amino)-7,8-dihydro-1,6-naphthyridin-6(5H)-yl)propan-1-ol]		8.34	8.70	7.68				
CC1CN(CCO)Cc2ccc(Nc3ncc4c5ccncc5n([C@H]5CC[C@H](C)CC5)c4n3)nc21 (some centres unmarked) [Example 15, 2-(8-Methyl-2-((9-((1r,4r)-4-methylcyclohexyl)-9H-pyrido[4′,3′:4,5]pyrrolo[2,3-d]pyrimidin-2-yl)amino)-7,8-dihydro-1,6-naphthyridin-6(5H)-yl)ethanol]		7.69	8.51	7.53				
C[C@H]1CC[C@H](n2c3cnccc3c3cnc(Nc4ccc5c(n4)C(O)CNC5)nc32)CC1 (some centres unmarked) [Example 16, 2-((9-((1r,4r)-4-Methylcyclohexyl)-9H-pyrido[4′,3′:4,5]pyrrolo[2,3-d]pyrimidin-2-yl)amino)-5,6,7,8-tetrahydro-1,6-naphthyridin-8-ol]		7.78	8.85	7.62				
C[C@H]1CC[C@H](n2c3cnccc3c3cnc(Nc4ccc5c(n4)CCN(C(=O)CO)C5)nc32)CC1 [Example 5, 2-hydroxy-1-(2-((9-((1r,4r)-4-methylcyclohexyl)-9H-pyrido[4′,3′:4,5]pyrrolo[2,3-d]pyrimidin-2-yl)amino)-7,8-dihydro-1,6-naphthyridin-6(5H)-yl)ethanone]		8.62	8.82	7.72	dose dependent anti-tumor activity; also recorded: Dose-dependent inhibition of tumor growth	statistically different from the vehicle treated group	dose dependent anti-tumor activity; also recorded: Dose-dependent inhibition of tumor growth	statistically different from the vehicle treated group
C[C@H]1CC[C@H](n2c3cnccc3c3cnc(Nc4cc5c(cn4)CCNC5)nc32)CC1 [Example 11, 9-((1r,4r)-4-Methylcyclohexyl)-N-(5,6,7,8-tetrahydro-2,6-naphthyridin-3-yl)-9H-pyrido[4′,3′:4,5]pyrrolo[2,3-d]pyrimidin-2-amine]		6.59	7.13	< 5.52				
C[C@H]1CC[C@H](n2c3cnccc3c3cnc(Nc4cc5c(cn4)CCN(CCO)C5)nc32)CC1 [Example 12, 2-(7-((9-((1r,4r)-4-Methylcyclohexyl)-9H-pyrido[4′,3′:4,5]pyrrolo[2,3-d]pyrimidin-2-yl)amino)-3,4-dihydro-2,6-naphthyridin-2(1H)-yl)ethanol]		7.74	8.57	7.97				
CS(=O)(=O)CCN1CCc2nc(Nc3ncc4c5ccncc5n([C@H]5CC[C@H](C)CC5)c4n3)ccc2C1 [Example 8, 9-((1r,4r)-4-Methylcyclohexyl)-N-(6-(2-(methylsulfonyl)ethyl)-5,6,7,8-tetrahydro-1,6-naphthyridin-2-yl)-9H-pyrido[4′,3′:4,5]pyrrolo[2,3-d]pyrimidin-2-amine]		8.62	7.44	8.04				
O=C(CO)N1CCc2nc(Nc3ncc4c5ccncc5n(C5CCCC5)c4n3)ccc2C1 [Example 22, 1-(2-((9-Cyclopentyl-9H-pyrido[4′,3′:4,5]pyrrolo[2,3-d]pyrimidin-2-yl)amino)-7,8-dihydro-1,6-naphthyridin-6(5H)-yl)-2-hydroxyethanone]		7.44	9.19	8.28				
COCCN1CCc2nc(Nc3ncc4c5ccncc5n([C@H]5CC[C@H](C)CC5)c4n3)ccc2C1 [Example 10, N-(6-(2-Methoxyethyl)-5,6,7,8-tetrahydro-1,6-naphthyridin-2-yl)-9-((1r,4r)-4-methylcyclohexyl)-9H-pyrido[4′,3′:4,5]pyrrolo[2,3-d]pyrimidin-2-amine]		7.98	8.77	7.48				
CC1CNCc2ccc(Nc3ncc4c5ccncc5n([C@H]5CC[C@H](C)CC5)c4n3)nc21 (some centres unmarked) [Example 13, N-(8-Methyl-5,6,7,8-tetrahydro-1,6-naphthyridin-2-yl)-9-((1r,4r)-4-methylcyclohexyl)-9H-pyrido[4′,3′:4,5]pyrrolo[2,3-d]pyrimidin-2-amine]		7.50	8.74	7.26				
C[C@H]1CC[C@H](n2c3cnccc3c3cnc(Nc4ccc5c(n4)CCN(C(=O)C(=O)O)C5)nc32)CC1 [Example 6, 2-(2-((9-((1r,4r)-4-Methylcyclohexyl)-9H-pyrido[4′,3′:4,5]pyrrolo[2,3-d]pyrimidin-2-yl)amino)-7,8-dihydro-1,6-naphthyridin-6(5H)-yl)-2-oxoacetic acid]		6.92	8.48	7.34				
C[C@H]1CC[C@H](n2c3cnccc3c3cnc(Nc4ccc5c(n4)CCN(CCO)C5)nc32)CC1 [Example 3, 2-(2-((9-((1r,4r)-4-Methylcyclohexyl)-9H-pyrido[4′,3′:4,5]pyrrolo[2,3-d]pyrimidin-2-yl)amino)-7,8-dihydro-1,6-naphthyridin-6(5H)-yl)ethanol]		8.59	8.74	7.83				

Reference: patent US8623885B2, “Fused tricyclic dual inhibitors of CDK 4/6 and FLT3” (Amgen Inc., priority 2011, dated 2014)
